Results from ChEMBL document CHEMBL1152027, “The prooligonucleotide approach. I: Esterase-mediated reversibility of dithymidine S-alkyl-phosphorothiolates to dithymidine phosphorothioates” (Bioorg Med Chem Lett, 1995).

Experiments:
[1] = Half-life in the CEM cell extracts; assay type: ADME, CCRF-CEM; settings: human
[2] = Half-life in the culture medium (RPMI 1640+10% fetal calf serum FCS); assay type: ADME, cell-free, Bos taurus; settings: cattle

## CC(=O)SCSP(=O)(OCc1oc(-n2cc(C)c(=O)[nH]c2=O)cc1O)Oc1cc(-n2cc(C)c(=O)[nH]c2=O)oc1CO (stereo unspecified)
[1]
  half-life: < 5 min
[2]
  half-life: 60 min

## Cc1cn(-c2cc(O)c(COP(=O)(Oc3cc(-n4cc(C)c(=O)[nH]c4=O)oc3CO)SCOC(=O)C(C)(C)C)o2)c(=O)[nH]c1=O (stereo unspecified)
[1]
  half-life: 40 min
[2]
  half-life: 360 min

## CC(=O)SCCSP(=O)(OCc1oc(-n2cc(C)c(=O)[nH]c2=O)cc1O)Oc1cc(-n2cc(C)c(=O)[nH]c2=O)oc1CO (stereo unspecified)
[1]
  half-life: < 5 min
[2]
  half-life: 420 min
